Reference: article PMC3320615, “β-Microseminoprotein Endows Post Coital Seminal Plasma with Potent Candidacidal Activity by a Calcium- and pH-Dependent Mechanism” (PLoS Pathogens, 2012)

System: Candida albicans ATCC 90028
Test: CFU assay with C. albicans
Format: cell-based
Details: for Estimate (difference between means of log values): control - treatment
Source text: Candida albicans strains: ATCC 90028, CAF-1-2, SC5814, BM4f35II68, vaginal clinical isolates from Dept. of Clincal Microbiology, Skåne University Hospital, SO_303369 and SO_503471. Candida parapsilosis strains: ATCC 90018, BD1800, BD17837, and BM24/68/09. Candida glabrata strains: ATCC 90030, clinical isolates from Dept. of Clincal Microbiology, Skåne University Hospital, SO_3336, SO_3400 and SO_503413. All strains were inoculated from frozen culture and grown in Yeast extract-Peptone-Dextrose (YPD) (Sigma) and on Sabourand Dextrose Broth (SAB) (Difco) plates at 30°C with 5% (v/v) CO2. If not otherwise stated, ATCC 90028 was used for candidacidal experiments.
Candida albicans was grown over night, washed, and resuspended in 10 mM Tris, 5 mM glucose, pH 7.4 or pH 4. Approximately 4×10^3 to 10^4 CFU of C. albicans were incubated with the test substance in low or neutral pH buffer for 4 h at 37°C. After incubation, the suspension was diluted and plated. Colonies were counted after two days incubation of the plates at 30°C. Bacteria from overnight cultures were inoculated in fresh medium and grown for 3 h, washed in 10 mM Tris, 5 mM glucose pH 7.4. Approximately 8×10^4 CFU were incubated with sample in 10 mM Tris, 5 mM glucose pH 7.4 or pH 4 for 1 h at 37°C, diluted, plated and incubated over night at 37°C and the colonies counted.
Statistical analysis was performed using SAS 9.2 software (SAS Institute, Cary, NC). Colony counts were log transformed. In order to choose the statistical method, interactions between the Treatment and Experiment were investigated. Treatments were screened by doing pair wise comparisons of each treatment to a control. Statistical tests used for the comparisons included MIXED procedure and LSMEANS statement. All tests where P-value<.05 were considered to indicate statistical significance. P-values were not adjusted for the multiple comparisons.
“Estimate” is the estimate of the difference between means of log values of treatment 1 and treatment 2

RIFKKEDCKYI [MSP66–76, eleven residues at the very tip of the loop (residue 66–76)]
Estimate (difference between means of log values) (50 µM + 50 µM EDTA, pH 7.4, + 50 µM calcium chloride, experiment 1): 0.4123 | Estimate (difference between means of log values) (50 µM + 50 µM EDTA, pH 7.4, + 50 µM calcium chloride, experiment 2): -0.3545 | Estimate (difference between means of log values) (50 µM + 50 µM EDTA, pH 7.4, + 50 µM calcium chloride, experiment 3): -0.7827 | Estimate (difference between means of log values) (50 µM + 50 µM EDTA, pH 7.4, + 50 µM calcium chloride, experiment 4): 0.2633 | Estimate (difference between means of log values) (50 µM + 50 µM EDTA, pH 7.4, + 50 µM calcium chloride, experiment 5): 0.02251 | Estimate (difference between means of log values) (50 µM + 50 µM EDTA, pH 7.4, + 75 µM calcium chloride, experiment 1): 0.2228 | Estimate (difference between means of log values) (50 µM + 50 µM EDTA, pH 7.4, + 75 µM calcium chloride, experiment 2): -0.4921 | Estimate (difference between means of log values) (50 µM + 50 µM EDTA, pH 7.4, + 75 µM calcium chloride, experiment 3): -0.1876 | Estimate (difference between means of log values) (50 µM + 50 µM EDTA, pH 7.4, + 75 µM calcium chloride, experiment 4): -0.2469 | Estimate (difference between means of log values) (50 µM + 50 µM EDTA, pH 7.4, + 75 µM calcium chloride, experiment 5): -0.2312 | Estimate (difference between means of log values) (50 µM + 50 µM EDTA, pH 7.4, + 100 µM calcium chloride, experiment 1): 0.07455 | Estimate (difference between means of log values) (50 µM + 50 µM EDTA, pH 7.4, + 100 µM calcium chloride, experiment 2): -0.1459 | Estimate (difference between means of log values) (50 µM + 50 µM EDTA, pH 7.4, + 100 µM calcium chloride, experiment 3): -0.4793 | Estimate (difference between means of log values) (50 µM + 50 µM EDTA, pH 7.4, + 100 µM calcium chloride, experiment 4): -0.1979 | Estimate (difference between means of log values) (50 µM + 50 µM EDTA, pH 7.4, + 100 µM calcium chloride, experiment 5): -0.3209 | Estimate (difference between means of log values) (50 µM + 50 µM EDTA, pH 7.4, + 200 µM calcium chloride, experiment 1): 0.4296 | Estimate (difference between means of log values) (50 µM + 50 µM EDTA, pH 7.4, + 200 µM calcium chloride, experiment 2): -0.6341 | Estimate (difference between means of log values) (50 µM + 50 µM EDTA, pH 7.4, + 200 µM calcium chloride, experiment 3): -0.7050 | Estimate (difference between means of log values) (50 µM + 50 µM EDTA, pH 7.4, + 200 µM calcium chloride, experiment 4): -0.2560 | Estimate (difference between means of log values) (50 µM + 50 µM EDTA, pH 7.4, + 200 µM calcium chloride, experiment 5): 0.04894 | Estimate (difference between means of log values) (50 µM + 50 µM EDTA, pH 7.4, no calcium, experiment 1): 5.2769 | Estimate (difference between means of log values) (50 µM + 50 µM EDTA, pH 7.4, no calcium, experiment 2): 4.2266 | Estimate (difference between means of log values) (50 µM + 50 µM EDTA, pH 7.4, no calcium, experiment 3): 2.8351 | Estimate (difference between means of log values) (50 µM + 50 µM EDTA, pH 7.4, no calcium, experiment 4): 4.2317 | Estimate (difference between means of log values) (50 µM + 50 µM EDTA, pH 7.4, no calcium, experiment 5): 5.0824 | Estimate (difference between means of log values) (50 µM, no EDTA, pH 4, + 50 µM calcium chloride, experiment 1): 2.5872 | Estimate (difference between means of log values) (50 µM, no EDTA, pH 4, + 50 µM calcium chloride, experiment 2): 2.7886 | Estimate (difference between means of log values) (50 µM, no EDTA, pH 4, + 50 µM calcium chloride, experiment 3): 1.3256 | Estimate (difference between means of log values) (50 µM, no EDTA, pH 4, + 50 µM calcium chloride, experiment 4): 2.0744 | Estimate (difference between means of log values) (50 µM, no EDTA, pH 4, + 50 µM calcium chloride, experiment 5): 1.7552 | Estimate (difference between means of log values) (50 µM, no EDTA, pH 4, + 75 µM calcium chloride, experiment 1): 2.5170 | Estimate (difference between means of log values) (50 µM, no EDTA, pH 4, + 75 µM calcium chloride, experiment 2): 1.9220 | Estimate (difference between means of log values) (50 µM, no EDTA, pH 4, + 75 µM calcium chloride, experiment 3): -0.3426 | Estimate (difference between means of log values) (50 µM, no EDTA, pH 4, + 75 µM calcium chloride, experiment 4): 1.5746 | Estimate (difference between means of log values) (50 µM, no EDTA, pH 4, + 75 µM calcium chloride, experiment 5): 1.0684 | Estimate (difference between means of log values) (50 µM, no EDTA, pH 4, + 100 µM calcium chloride, experiment 1): 0.6973 | Estimate (difference between means of log values) (50 µM, no EDTA, pH 4, + 100 µM calcium chloride, experiment 2): 1.1772 | Estimate (difference between means of log values) (50 µM, no EDTA, pH 4, + 100 µM calcium chloride, experiment 3): 0.01412 | Estimate (difference between means of log values) (50 µM, no EDTA, pH 4, + 100 µM calcium chloride, experiment 4): 1.0688 | Estimate (difference between means of log values) (50 µM, no EDTA, pH 4, + 100 µM calcium chloride, experiment 5): 0.1005 | Estimate (difference between means of log values) (50 µM, no EDTA, pH 4, + 200 µM calcium chloride, experiment 1): 1.0661 | Estimate (difference between means of log values) (50 µM, no EDTA, pH 4, + 200 µM calcium chloride, experiment 2): 0.6082 | Estimate (difference between means of log values) (50 µM, no EDTA, pH 4, + 200 µM calcium chloride, experiment 3): -0.8572 | Estimate (difference between means of log values) (50 µM, no EDTA, pH 4, + 200 µM calcium chloride, experiment 4): 0.6184 | Estimate (difference between means of log values) (50 µM, no EDTA, pH 4, + 200 µM calcium chloride, experiment 5): -1.1924 | Estimate (difference between means of log values) (50 µM, no EDTA, pH 4, no calcium, experiment 1): 5.4425 | Estimate (difference between means of log values) (50 µM, no EDTA, pH 4, no calcium, experiment 2): 4.7863 | Estimate (difference between means of log values) (50 µM, no EDTA, pH 4, no calcium, experiment 3): 3.5454 | Estimate (difference between means of log values) (50 µM, no EDTA, pH 4, no calcium, experiment 4): 4.0909 | Estimate (difference between means of log values) (50 µM, no EDTA, pH 4, no calcium, experiment 5): 3.8004 | Estimate (difference between means of log values) (140 µM + 0.5 mM calcium, pH 4, experiment 1): 1.0371 | Estimate (difference between means of log values) (140 µM + 0.5 mM calcium, pH 4, experiment 2): 0.7970 | Estimate (difference between means of log values) (140 µM + 0.5 mM calcium, pH 4, experiment 3): -0.5619 | Estimate (difference between means of log values) (140 µM + 0.5 mM calcium, pH 4, experiment 4): 0.4135 | Estimate (difference between means of log values) (140 µM + 0.5 mM magnesium, pH 4, experiment 1): 5.4081 | Estimate (difference between means of log values) (140 µM + 0.5 mM magnesium, pH 4, experiment 2): 4.1263 | Estimate (difference between means of log values) (140 µM + 0.5 mM magnesium, pH 4, experiment 3): 2.8985 | Estimate (difference between means of log values) (140 µM + 0.5 mM magnesium, pH 4, experiment 4): 5.0596 | Estimate (difference between means of log values) (140 µM, pH 4, experiment 1): 5.5432 | Estimate (difference between means of log values) (140 µM, pH 4, experiment 2): 4.1263 | Estimate (difference between means of log values) (140 µM, pH 4, experiment 3): 2.8985 | Estimate (difference between means of log values) (140 µM, pH 4, experiment 4): 4.7326 | Calcium concentration that completely inhibited the antifungal activity (neutral pH (MSP66–76 with equimolar EDTA)): 50 µM
